According to patent US11174268B2, “Benzenesulfonamide compouds and their use as therapeutic agents” (Xenon Pharmaceuticals Inc., priority 2016, dated 2021):
Where a name gives a salt, the structure may show the parent alone. Read-outs that look alike come from different tables or passages of the source.

Columns and labels:
NaV1.1 [1] = target: T1, NaV1.1 (Homo sapiens (Human), UniProt P35498); assay: Electrophysiological Assay (EP), patch voltage clamp, NaV1.1; type: cell-based; conditions: HEK-293 cells, whole-cell patch clamp;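 further: sodium current block measured at ambient temperature, holding at fully inactivating potential, 20 ms repolarization to −150 mV before test pulse, versus 0.5% DMSO control currents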
NaV1.6 [2] = target: T2, NaV1.6 (Homo sapiens (Human), UniProt Q9UQD0); assay: Electrophysiological Assay (EP), patch voltage clamp, NaV1.6; type: cell-based; conditions: HEK-293 cells, whole-cell patch clamp;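 further: sodium current recorded at ambient temperature, channels held inactivated then briefly repolarized to −150 mV for 20 ms before a test pulse, control currents in 0.5% DMSO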
NaV1.6 [3] = target: T2, NaV1.6; assay: Sodium Influx Assay (Flux), NaV1.6; type: cell-based; conditions: Trex HEK293 cells, ANG2 dye, inactivated state;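 further: Tetracycline-induced cells, compounds applied for one hour at room temperature with modulators holding channels open, IC50 from percent inhibition of sodium influx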
NaV1.1 [4] = target: T1, NaV1.1; assay: Sodium Influx Assay (Flux), NaV1.1; type: cell-based; conditions: Trex HEK293 cells, ANG2 dye, inactivated state;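 further: channels co-expressed with human β1 subunit and held open by modulators, cells exposed to compounds for one hour at room temperature, IC50 from percent inhibition of influx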
NaV1.5 [5] = target: T3, NaV1.5 (Homo sapiens (Human), UniProt Q14524); assay: Sodium Influx Assay (Flux), NaV1.5
NaV1.5 [6] = target: T3, NaV1.5; assay: Electrophysiological Assay (EP), patch voltage clamp, NaV1.5; type: cell-based; conditions: HEK-293 cells, whole-cell patch clamp
NaV1.5 [7] = target: T3, NaV1.5
[8] = read-out: Flux NaV1.5 IC50, Trex HEK293 cells, ANG2 dye, inactivated state

T3 sequence (Q14524 other isoform, or with tags, fused parts or gaps): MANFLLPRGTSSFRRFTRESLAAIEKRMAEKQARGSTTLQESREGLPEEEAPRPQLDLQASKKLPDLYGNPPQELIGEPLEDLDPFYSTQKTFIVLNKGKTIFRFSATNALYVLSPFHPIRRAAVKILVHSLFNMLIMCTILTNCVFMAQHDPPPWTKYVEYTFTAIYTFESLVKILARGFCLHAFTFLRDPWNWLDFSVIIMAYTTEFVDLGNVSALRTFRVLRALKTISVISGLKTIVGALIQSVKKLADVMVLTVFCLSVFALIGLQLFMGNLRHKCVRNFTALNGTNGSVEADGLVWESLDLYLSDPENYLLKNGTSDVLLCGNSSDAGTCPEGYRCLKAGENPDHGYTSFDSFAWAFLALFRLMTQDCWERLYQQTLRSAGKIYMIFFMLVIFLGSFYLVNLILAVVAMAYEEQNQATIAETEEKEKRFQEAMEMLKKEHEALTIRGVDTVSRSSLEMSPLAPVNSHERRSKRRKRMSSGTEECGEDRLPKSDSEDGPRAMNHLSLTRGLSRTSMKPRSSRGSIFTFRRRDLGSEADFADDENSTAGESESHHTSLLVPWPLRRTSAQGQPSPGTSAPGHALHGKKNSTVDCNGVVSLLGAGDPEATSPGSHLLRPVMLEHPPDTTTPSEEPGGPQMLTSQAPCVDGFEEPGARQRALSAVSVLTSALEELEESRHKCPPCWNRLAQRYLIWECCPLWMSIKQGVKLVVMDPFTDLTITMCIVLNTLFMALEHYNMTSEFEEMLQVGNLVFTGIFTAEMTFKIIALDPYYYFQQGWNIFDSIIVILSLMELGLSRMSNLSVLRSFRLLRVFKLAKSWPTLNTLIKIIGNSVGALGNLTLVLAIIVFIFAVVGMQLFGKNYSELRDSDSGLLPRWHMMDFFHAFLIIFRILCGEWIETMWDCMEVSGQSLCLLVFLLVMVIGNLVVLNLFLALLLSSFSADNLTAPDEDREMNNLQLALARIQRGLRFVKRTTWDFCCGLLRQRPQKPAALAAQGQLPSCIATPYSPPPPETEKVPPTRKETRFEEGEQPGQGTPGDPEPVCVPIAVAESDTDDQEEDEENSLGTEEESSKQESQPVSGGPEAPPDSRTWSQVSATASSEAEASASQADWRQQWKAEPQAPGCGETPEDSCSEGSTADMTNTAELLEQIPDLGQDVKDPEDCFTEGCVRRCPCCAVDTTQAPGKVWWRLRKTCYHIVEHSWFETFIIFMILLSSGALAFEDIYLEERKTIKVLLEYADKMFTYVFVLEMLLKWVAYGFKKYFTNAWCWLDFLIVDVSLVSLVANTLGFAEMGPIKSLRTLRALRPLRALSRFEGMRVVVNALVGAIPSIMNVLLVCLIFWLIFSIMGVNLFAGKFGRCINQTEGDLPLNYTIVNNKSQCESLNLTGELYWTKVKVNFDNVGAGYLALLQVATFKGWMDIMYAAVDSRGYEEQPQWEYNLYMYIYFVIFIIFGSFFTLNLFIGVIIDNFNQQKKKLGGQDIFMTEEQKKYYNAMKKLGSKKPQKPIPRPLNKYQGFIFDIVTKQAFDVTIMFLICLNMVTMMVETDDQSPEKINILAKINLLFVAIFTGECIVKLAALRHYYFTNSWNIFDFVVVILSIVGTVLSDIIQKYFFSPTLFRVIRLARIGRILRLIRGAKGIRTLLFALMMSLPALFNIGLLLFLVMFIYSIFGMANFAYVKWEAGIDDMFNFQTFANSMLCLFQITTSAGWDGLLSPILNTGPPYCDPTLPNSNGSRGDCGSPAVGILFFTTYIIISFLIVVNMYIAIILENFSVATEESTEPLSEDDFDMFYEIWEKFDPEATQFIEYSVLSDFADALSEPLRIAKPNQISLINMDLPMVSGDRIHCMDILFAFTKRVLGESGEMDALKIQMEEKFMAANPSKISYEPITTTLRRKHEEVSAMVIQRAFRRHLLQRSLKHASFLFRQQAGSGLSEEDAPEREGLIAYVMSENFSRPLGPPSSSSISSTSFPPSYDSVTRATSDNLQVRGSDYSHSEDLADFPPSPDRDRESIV
T2 sequence (Q9UQD0 whole entry): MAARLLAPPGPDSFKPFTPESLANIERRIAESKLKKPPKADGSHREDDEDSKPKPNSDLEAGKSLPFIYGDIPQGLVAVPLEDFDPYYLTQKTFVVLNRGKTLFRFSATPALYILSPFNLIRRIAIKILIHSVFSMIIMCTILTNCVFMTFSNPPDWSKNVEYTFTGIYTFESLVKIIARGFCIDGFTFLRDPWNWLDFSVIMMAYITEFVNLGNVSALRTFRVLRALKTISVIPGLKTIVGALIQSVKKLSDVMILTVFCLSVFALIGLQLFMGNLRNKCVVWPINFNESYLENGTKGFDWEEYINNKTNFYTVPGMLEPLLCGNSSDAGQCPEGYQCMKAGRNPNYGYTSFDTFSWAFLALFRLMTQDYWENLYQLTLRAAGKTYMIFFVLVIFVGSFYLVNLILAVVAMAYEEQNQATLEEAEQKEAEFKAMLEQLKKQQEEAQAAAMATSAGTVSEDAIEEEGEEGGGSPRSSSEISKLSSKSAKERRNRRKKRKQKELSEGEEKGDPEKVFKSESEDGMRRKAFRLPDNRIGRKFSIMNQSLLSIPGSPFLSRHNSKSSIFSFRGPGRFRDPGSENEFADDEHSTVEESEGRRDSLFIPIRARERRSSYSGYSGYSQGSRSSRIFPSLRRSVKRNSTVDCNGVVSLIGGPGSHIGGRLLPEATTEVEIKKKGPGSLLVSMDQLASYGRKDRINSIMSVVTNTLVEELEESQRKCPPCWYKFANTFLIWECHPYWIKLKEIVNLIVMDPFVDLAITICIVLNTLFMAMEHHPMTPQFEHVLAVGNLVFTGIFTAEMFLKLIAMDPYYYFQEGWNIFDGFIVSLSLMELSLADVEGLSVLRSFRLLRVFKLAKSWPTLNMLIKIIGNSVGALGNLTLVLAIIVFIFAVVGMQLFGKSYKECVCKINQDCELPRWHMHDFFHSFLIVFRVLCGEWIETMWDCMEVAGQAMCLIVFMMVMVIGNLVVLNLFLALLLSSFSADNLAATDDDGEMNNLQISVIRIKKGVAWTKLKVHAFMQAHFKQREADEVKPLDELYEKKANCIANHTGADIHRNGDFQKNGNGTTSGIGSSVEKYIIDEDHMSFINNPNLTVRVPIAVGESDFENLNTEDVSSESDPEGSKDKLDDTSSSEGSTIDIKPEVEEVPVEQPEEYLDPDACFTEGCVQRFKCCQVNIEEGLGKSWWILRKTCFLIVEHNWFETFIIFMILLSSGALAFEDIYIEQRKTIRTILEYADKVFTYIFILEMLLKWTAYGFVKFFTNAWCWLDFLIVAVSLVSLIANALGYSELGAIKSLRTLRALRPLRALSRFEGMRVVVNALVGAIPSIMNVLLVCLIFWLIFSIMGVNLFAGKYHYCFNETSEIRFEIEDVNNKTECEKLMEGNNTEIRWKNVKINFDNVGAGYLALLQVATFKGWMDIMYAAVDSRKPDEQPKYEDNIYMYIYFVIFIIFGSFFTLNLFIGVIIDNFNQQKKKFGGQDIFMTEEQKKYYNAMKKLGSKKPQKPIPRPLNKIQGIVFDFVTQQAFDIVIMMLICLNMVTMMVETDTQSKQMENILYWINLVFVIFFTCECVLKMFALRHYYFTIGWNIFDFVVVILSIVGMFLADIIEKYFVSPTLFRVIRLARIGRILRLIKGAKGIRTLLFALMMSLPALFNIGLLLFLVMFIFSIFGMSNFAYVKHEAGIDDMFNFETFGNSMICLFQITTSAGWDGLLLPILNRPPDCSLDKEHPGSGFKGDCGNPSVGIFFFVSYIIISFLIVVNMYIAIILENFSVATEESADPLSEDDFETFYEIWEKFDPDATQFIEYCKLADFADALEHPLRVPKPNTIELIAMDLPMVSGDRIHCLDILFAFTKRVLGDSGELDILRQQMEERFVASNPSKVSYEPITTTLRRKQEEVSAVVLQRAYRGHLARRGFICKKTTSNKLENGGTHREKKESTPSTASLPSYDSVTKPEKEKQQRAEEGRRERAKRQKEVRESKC

SMILES	IC50 (NaV1.1 [1]) [µM]	IC50 (NaV1.6 [2]) [µM]	IC50 (NaV1.6 [3]) [µM]	IC50 (NaV1.1 [4]) [µM]	IC50 (NaV1.5 [5]; [8]) [µM]	IC50 (NaV1.5 [6]) [µM]	IC50 (NaV1.5 [5]) [µM]	IC50 (NaV1.5 [7]) [µM]
C[C@H](Nc1cc(F)c(S(=O)(=O)Nc2cscn2)cc1Cl)c1cc(Cl)ccc1F [Example 5, (S)-5-chloro-4-((1-(5-chloro-2-fluorophenyl)ethyl)amino)-2-fluoro-N-(thiazol-4-yl)benzenesulfonamide]	10	0.152	0.785	4.83	5.31	10		
C[C@H](Nc1cc(F)c(S(=O)(=O)Nc2nccs2)cc1Cl)c1ccccc1F [Example 45, (S)-5-chloro-2-fluoro-4-((1-(2-fluorophenyl)ethyl)amino)-N-(thiazol-2-yl)benzenesulfonamide]	0.539	0.013	0.108	1.18	6.26	5.15		
O=S(=O)(Nc1nccs1)c1cc(Cl)c(NCc2cccc3ccncc23)cc1F [Example 61, 5-chloro-2-fluoro-4-((isoquinolin-8-ylmethyl)amino)-N-(thiazol-2-yl)benzenesulfonamide]	0.283	0.004	0.021	1.13	8.91	10		
C[C@H](Oc1cc(F)c(S(=O)(=O)Nc2nccs2)cc1Cl)c1ccccc1F [Example 116, (S)-5-chloro-2-fluoro-4-(1-(2-fluorophenyl)ethoxy)-N-(thiazol-2-yl)benzenesulfonamide]	9.89	0.037	0.477	5.78	4.58	14.3		
CCC(Nc1ccc(S(=O)(=O)Nc2ncns2)cc1Cl)c1ccccc1 (centres unmarked) [Example 139, 3-chloro-4-(1-phenylpropylamino)-N-(1,2,4-thiadiazol-5-yl)benzenesulfonamide]		0.038	0.107	1.29		≥ 30	12.9	
C[C@H]1CCCN1Cc1cccc(F)c1CNc1cc(F)c(S(=O)(=O)Nc2cscn2)c(F)c1 [Example 158, (S)-2,6-difluoro-4-((2-fluoro-6-((2-methylpyrrolidin-1-yl)methyl)benzyl)amino)-N-(thiazol-4-yl)benzenesulfonamide formate]			0.126	30				30
CN(Cc1cccc(F)c1CNc1cc(F)c(S(=O)(=O)Nc2cscn2)c(F)c1)CC1CC1 [Example 187, 4-((2-(((cyclopropylmethyl)(methyl)amino)methyl)-6-fluorobenzyl)amino)-2,6-difluoro-N-(thiazol-4-yl)benzenesulfonamide formate]			0.065	12.4				30
C[C@H](Nc1ccc(S(=O)(=O)Nc2cscn2)c(F)c1Cl)c1cc(Cl)ccc1F [Example 190, (S)-3-chloro-4-((1-(5-chloro-2-fluorophenyl)ethyl)amino)-2-fluoro-N-(thiazol-4-yl)benzenesulfonamide]	9.71	0.055	0.571	13.4	25.8	30		
CC1(C)CCN1Cc1c(F)cccc1CNc1cc(F)c(S(=O)(=O)Nc2cscn2)c(F)c1 [Example 198, 4-((2-((2,2-dimethylazetidin-1-yl)methyl)-3-fluorobenzyl)amino)-2,6-difluoro-N-(thiazol-4-yl)benzenesulfonamide formate]			0.391	25.8				30
C[C@H](Nc1cc(F)c(S(=O)(=O)Nc2cscn2)cc1Cl)c1cc(CCN2CCC2)ccc1F [Example 257, (S)-4-((1-(5-(2-(azetidin-1-yl)ethyl)-2-fluorophenyl)ethyl)amino)-5-chloro-2-fluoro-N-(thiazol-4-yl)benzenesulfonamide formate]			0.49	6.1				8.39
O=S(=O)(Nc1cscn1)c1c(F)cc(NCc2ccccc2CN2CCC2)cc1F [Example 272, 4-((2-(azetidin-1-ylmethyl)benzyl)amino)-2,6-difluoro-N-(thiazol-4-yl)benzenesulfonamide formate]	10	0.031	0.163	20.7	30	30		

Further lines, with some results ahead:

IC50 (NaV1.1 [1]) [µM]	IC50 (NaV1.6 [2]) [µM]	IC50 (NaV1.6 [3]) [µM]	IC50 (NaV1.1 [4]) [µM]	SMILES	IC50 (NaV1.5 [5]; [8]) [µM]	IC50 (NaV1.5 [6]) [µM]	IC50 (NaV1.5 [5]) [µM]	IC50 (NaV1.5 [7]) [µM]
5.59	0.043	0.38	3.77	CC[C@H](Nc1cc(F)c(S(=O)(=O)Nc2ccncn2)cc1Cl)c1ccccc1Cl [Example 277, (S)-5-chloro-4-((1-(2-chlorophenyl)propyl)amino)-2-fluoro-N-(pyrimidin-4-yl)benzenesulfonamide 2,2,2-trifluoroacetate]	9.39	10		
14.5	0.011	0.126	14.9	O=S(=O)(Nc1cscn1)c1c(F)cc(NCc2c(F)ccc(F)c2CN2CCC2)cc1F [Example 283, 4-((2-(azetidin-1-ylmethyl)-3,6-difluorobenzyl)amino)-2,6-difluoro-N-(thiazol-4-yl)benzenesulfonamide]	28	30		
10	0.09	0.125	7.86	CN1CC(Oc2cccc(F)c2CNc2cc(F)c(S(=O)(=O)Nc3cscn3)c(F)c2)C1 [Example 326, 2,6-difluoro-4-((2-fluoro-6-((1-methylazetidin-3-yl)oxy)benzyl)amino)-N-(thiazol-4-yl)benzenesulfonamide formate]	12.7			
10	0.186	0.257	30	O=S(=O)(Nc1cccnn1)c1c(F)cc(NCc2c(F)cccc2CN2CCC2)cc1F [Example 333, 4-((2-(azetidin-1-ylmethyl)-6-fluorobenzyl)amino)-2,6-difluoro-N-(pyridazin-3-yl)benzenesulfonamide formate]	30			
10	0.085	0.385	4.79	O=S(=O)(Nc1cscn1)c1cc(Cl)c(N[C@H](c2cc(F)ccc2F)C(F)F)cc1F [Example 335, (R)-5-chloro-4-((1-(2,5-difluorophenyl)-2,2-difluoroethyl)amino)-2-fluoro-N-(thiazol-4-yl)benzenesulfonamide]	21.2			
